From patent US20120245107A1, “METHODS OF REDUCING THE PROLIFERATION AND VIABLILITY OF MICROBIAL AGENTS” (Targeted Delivery Technologies Limited, priority 2009, published 2012)
≈ marks a conversion by molar mass, not a printed value. Read-outs that look alike come from different tables or passages of the source. Values belong to the compound of their own block, whether it stands above or below them.

Legend:
Type in all cases: cell-based
Candida albicans = assay: Minimum inhibitory concentration (MIC100), CLSI M38-A2 broth dilution
Description: Several strains of Aspergillus flavus, Aspergillus fumigatus, and Candida albicans were tested. Trichophyton rubrum MYA4498 and T. mentagrophytes MYA4439, the QC isolates approved by the Clinical and Laboratory Standards Institute (CLSI) for dermatophyte susceptibility testing, can also be tested.
(§1) MIC testing was performed according to the CLSI M38A2 standard for the susceptibility testing of dermatophytes developed at the Center for Medical Mycology (See, Ghannoum et al., 2004, J Clin Microbial. 42(7): 2977-2979 CLSI, Reference Method for Broth Dilution Antifungal Susceptibility Testing of Filamentous Fungi: Approved Standard-Second Edition. CLSI document M38-A2 [ISBN 1-56238-668-9]. CLSI, 940 West Valley Road, Suite 1400, Wayne, Pa. 19087-1898 USA, 2008). Briefly, RPMI was the test medium, incubation temperature and time was 35° C. and 24 hours or 48 hours, respectively, and the inoculum size was 1-3×10^3 conidia/ml. The MIC endpoint was 100% inhibition as compared to the growth control.
The MIC range, MIC100 (defined as the minimum concentration required to inhibit 100% of the isolates tested), for the antifungal preparations of the invention and comparators was computed. The MFC range, MFC50, MFC90, and MFC100 for the antifungal preparations of the invention and comparators can also be computed.
Similarly, the lowest concentration (μg/mL) of a fluconazole formulation of the invention was compared to flucanozole alone that is required to inhibit 100% growth of various isolates of Candida albicans (MIC100) was determined (see Table 14). In this example, the fluconazole formulation of the invention comprises fluconazole formulated with a phosopholipid and a surfactant.

Aspergillus fumigatus = assay: MIC100 of voriconazole and terbinafine formulation individually and in combination, FICI; conditions: for MIC100, Combination: concentration of the agent when voriconazole and terbinafine formulation are used in combination; for MIC: Aspergillus fumigatus, agent used individually, read-out: MIC100, Individual
Description: as §1
(§2) The lowest concentration (μg/mL) of either a terbinafine formulation of the invention or voriconazole, when used in combination, that is required to inhibit 100% of various isolates of Aspergillus flavus and Aspergillus fumigatus (MIC100) was determined (see Table 15). In this example, the terbinafine formulation of the invention comprises terbinafine formulated with a phospholipid and a surfactant.
(§3) Depicted in Table 15, the Fractional Inhibitory […] Index (FWD measures the degree of interaction between the two antifungal agents. A FICI value of greater than 4 indicates an antagonistic interaction; a FICI value of between 0.5 and 4 indicates no interaction; and a FICI value of less than 0.5 indicates a synergistic interaction. As depicted in Table 15, a lower concentration of either voriconazole or terbinafine formulation is generally able to inhibit 100% growth of various isolates of Aspergillus fumigatus and Aspergillus flavus when both antifungal agents are used in combination than the concentration required to inhibit 100% growth of various isolates of Aspergillus fumigatus and Aspergillus flavus when either voriconazole or terbinafine formulation is used individually.

Aspergillus flavus = assay: as above; conditions: for MIC100, Combination: concentration of the agent when voriconazole and terbinafine formulation are used in combination; for MIC: Aspergillus flavus, agent used individually, read-out: MIC100, Individual
Description: as §1, §2, §3

[1] = A. fumigatus strain MRL No. 2456
[2] = A. fumigatus strain MRL No. 2471
[3] = A. fumigatus strain MRL No. 2574
[4] = A. fumigatus strain MRL No. 16627
[5] = A. fumigatus strain MRL No. 16629

- MIC (Candida albicans; C. albicans strain MRL No. 648): > 64 µg/mL
- MIC (Candida albicans; C. albicans strain MRL No. 9650): > 128 µg/mL
- MIC (Candida albicans; C. albicans strain MRL No. 9698): 32 µg/mL (≈ 104 µM)
- MIC (Candida albicans; C. albicans strain MRL No. 14461): 0.25 µg/mL (≈ 0.816 µM)
- MIC (Candida albicans; C. albicans strain MRL No. 14465): 0.25 µg/mL (≈ 0.816 µM)
Compound: OC(Cn1cncn1)(Cn1cncn1)c1ccc(F)cc1F [Flucanozole, fluconazole]

- MIC100, Combination (Aspergillus fumigatus; [1]): 0.06 µg/mL
- MIC100, Combination (Aspergillus fumigatus; [2]): 0.06 µg/mL
- MIC100, Combination (Aspergillus fumigatus; [3]): 0.06 µg/mL
- MIC100, Combination (Aspergillus fumigatus; [4]): 0.03 µg/mL
- MIC100, Combination (Aspergillus fumigatus; [5]): 0.03 µg/mL
- MIC (Aspergillus fumigatus; [1]): 0.12 µg/mL
- MIC (Aspergillus fumigatus; [2]): 0.25 µg/mL
- MIC (Aspergillus fumigatus; [3]): 0.25 µg/mL
- MIC (Aspergillus fumigatus; [4]): 0.5 µg/mL
- MIC (Aspergillus fumigatus; [5]): 0.12 µg/mL
- MIC100, Combination (Aspergillus flavus; A. flavus strain MRL No. 17842): 0.12 µg/mL
- MIC100, Combination (Aspergillus flavus; A. flavus strain MRL No. 18736): 0.12 µg/mL
- MIC100, Combination (Aspergillus flavus; A. flavus strain MRL No. 18743): 0.12 µg/mL
- MIC100, Combination (Aspergillus flavus; A. flavus strain MRL No. 18744): 0.03 µg/mL
- MIC (Aspergillus flavus; A. flavus strain MRL No. 17842): 0.25 µg/mL
- MIC (Aspergillus flavus; A. flavus strain MRL No. 18736): 0.5 µg/mL
- MIC (Aspergillus flavus; A. flavus strain MRL No. 18743): 0.5 µg/mL
- MIC (Aspergillus flavus; A. flavus strain MRL No. 18744): 0.8 µg/mL
Compound: C[C@@H](c1ncncc1F)[C@](O)(Cn1cncn1)c1ccc(F)cc1F [Voriconazole, voriconazole]
